The source of these data is ChEMBL document CHEMBL2074298, “Inhibition of vinblastine efflux mediated by P-glycoprotein by grapefruit juice components in caco-2 cells” (Biol Pharm Bull, 1998).

The target in series [1] is T1, ATP-dependent translocase ABCB1 (Homo sapiens, UniProt P08183). The experiment in a line: TP_TRANSPORTER: increase in Vinblastine transepithelial transpot (apical to basal) (Vinblastine: 0.01 uM, GFJ: 50 %) in Caco-2 cells. The series is classed as functional, cell-based.
Series [2] deals with T1, ATP-dependent translocase ABCB1. Nature of the series: TP_TRANSPORTER: increase in Vinblastine transepithelial transpot (apical to basal)(Vinblastine: 0.01 uM, Naringenin: 855 uM) in Caco-2 cells. The series is classed as functional, cell-based. Conditions: caco-2, 855 µM.

T1 sequence (P08183 whole entry): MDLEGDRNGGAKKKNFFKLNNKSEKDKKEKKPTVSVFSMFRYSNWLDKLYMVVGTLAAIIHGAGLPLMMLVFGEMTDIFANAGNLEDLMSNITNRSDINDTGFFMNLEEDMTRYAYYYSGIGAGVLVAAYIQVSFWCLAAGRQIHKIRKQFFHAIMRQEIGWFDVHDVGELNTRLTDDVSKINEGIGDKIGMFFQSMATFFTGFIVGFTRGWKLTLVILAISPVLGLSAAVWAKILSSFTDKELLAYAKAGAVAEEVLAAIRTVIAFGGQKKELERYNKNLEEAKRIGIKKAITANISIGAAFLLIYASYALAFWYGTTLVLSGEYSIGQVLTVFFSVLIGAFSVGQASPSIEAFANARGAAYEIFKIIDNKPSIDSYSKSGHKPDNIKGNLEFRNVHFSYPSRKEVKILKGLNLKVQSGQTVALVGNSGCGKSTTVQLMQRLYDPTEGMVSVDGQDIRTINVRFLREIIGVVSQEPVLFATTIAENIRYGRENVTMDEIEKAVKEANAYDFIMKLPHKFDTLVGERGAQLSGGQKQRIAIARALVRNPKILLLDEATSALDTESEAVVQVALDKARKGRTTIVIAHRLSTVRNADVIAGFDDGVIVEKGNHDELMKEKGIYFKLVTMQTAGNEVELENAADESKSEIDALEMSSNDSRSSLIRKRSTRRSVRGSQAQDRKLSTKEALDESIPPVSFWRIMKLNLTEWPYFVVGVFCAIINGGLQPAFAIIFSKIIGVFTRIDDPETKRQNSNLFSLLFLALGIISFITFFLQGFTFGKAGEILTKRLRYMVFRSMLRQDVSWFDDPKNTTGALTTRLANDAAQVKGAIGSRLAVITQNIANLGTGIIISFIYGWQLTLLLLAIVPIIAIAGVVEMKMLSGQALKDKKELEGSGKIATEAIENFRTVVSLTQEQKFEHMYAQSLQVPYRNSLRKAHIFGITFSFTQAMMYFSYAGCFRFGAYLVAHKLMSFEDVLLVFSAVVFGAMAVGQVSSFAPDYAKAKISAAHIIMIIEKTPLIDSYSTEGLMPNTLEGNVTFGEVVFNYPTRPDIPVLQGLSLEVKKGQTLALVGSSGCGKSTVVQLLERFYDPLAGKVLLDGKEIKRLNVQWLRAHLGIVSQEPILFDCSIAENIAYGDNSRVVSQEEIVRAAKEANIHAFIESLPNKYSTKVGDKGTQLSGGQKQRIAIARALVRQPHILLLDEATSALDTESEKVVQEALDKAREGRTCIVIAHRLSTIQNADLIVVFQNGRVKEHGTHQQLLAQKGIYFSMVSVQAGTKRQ

GRAPEFRUIT JUICE: the Activity in series [1] was 240%. In series [2], `O=C1C[C@@H](c2ccc(O)cc2)Oc2cc(O)cc(O)c21` [NARINGENIN] returned an Activity of 240%.
